Experimental findings from PMC10157890, “Lysine Deacetylase Substrate Selectivity: Distinct Interaction Surfaces Drive Positive and Negative Selection for Residues Following Acetyllysine” (Biochemistry, 2023) are described below.

In test [1] the target is T1, full-length human KDAC6 (Homo sapiens, UniProt Q9UBN7).
T1 construct: A pFastbac1 construct containing full-length human KDAC6 (UniProtKB Q9UBN7) with a C-terminal His6 tag; His6 (C); made in house; host or cells: ExpiSf9 insect cells (baculovirus)
T1 sequence (Q9UBN7 1-1215): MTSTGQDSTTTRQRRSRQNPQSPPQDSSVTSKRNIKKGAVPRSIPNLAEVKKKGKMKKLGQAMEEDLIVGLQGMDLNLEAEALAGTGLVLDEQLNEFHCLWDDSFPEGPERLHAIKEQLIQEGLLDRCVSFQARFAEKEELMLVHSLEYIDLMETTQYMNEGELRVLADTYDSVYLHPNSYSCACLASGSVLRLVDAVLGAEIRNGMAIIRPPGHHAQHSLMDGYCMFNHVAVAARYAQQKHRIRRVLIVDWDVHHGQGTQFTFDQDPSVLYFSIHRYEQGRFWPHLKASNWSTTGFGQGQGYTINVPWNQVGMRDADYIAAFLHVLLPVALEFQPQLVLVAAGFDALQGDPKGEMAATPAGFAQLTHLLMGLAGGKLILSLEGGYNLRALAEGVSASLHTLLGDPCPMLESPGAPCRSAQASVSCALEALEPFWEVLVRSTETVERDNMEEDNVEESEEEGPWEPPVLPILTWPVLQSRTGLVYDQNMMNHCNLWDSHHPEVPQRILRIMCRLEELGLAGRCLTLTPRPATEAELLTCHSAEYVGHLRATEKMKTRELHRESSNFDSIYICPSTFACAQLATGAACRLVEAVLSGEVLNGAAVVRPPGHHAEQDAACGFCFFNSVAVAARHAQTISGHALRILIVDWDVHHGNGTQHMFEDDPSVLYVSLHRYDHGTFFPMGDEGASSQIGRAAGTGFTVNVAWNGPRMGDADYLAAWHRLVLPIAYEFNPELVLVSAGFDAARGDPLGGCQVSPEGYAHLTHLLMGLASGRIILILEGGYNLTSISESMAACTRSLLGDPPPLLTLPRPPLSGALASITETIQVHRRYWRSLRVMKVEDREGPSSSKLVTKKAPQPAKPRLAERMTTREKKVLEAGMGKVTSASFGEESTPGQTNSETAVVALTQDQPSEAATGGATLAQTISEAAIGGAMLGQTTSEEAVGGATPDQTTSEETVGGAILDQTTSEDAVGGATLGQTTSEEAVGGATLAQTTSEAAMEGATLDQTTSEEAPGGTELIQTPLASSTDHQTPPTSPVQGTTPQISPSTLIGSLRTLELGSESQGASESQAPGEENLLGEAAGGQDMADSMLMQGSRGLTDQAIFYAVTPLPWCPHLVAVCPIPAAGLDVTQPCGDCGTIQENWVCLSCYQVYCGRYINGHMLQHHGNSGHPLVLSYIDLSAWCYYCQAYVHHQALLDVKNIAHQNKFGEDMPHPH
Description: Activity of KDAC6 with putative substrate peptides (verification of substrate preferences). In kind it is biochemical. The conditions noted are these: endpoint, 100 μM peptide, buffer also containing 100 mM KCl; for specific activity, KDAC6 with putative substrates: 50–200 nM KDAC, 25 °C, pH 7.6, 15–60 min, average ± SD, SD; for specific activity, KDAC6 with putative substrates (no activity above limit): limit of reliable detection 0.0013 s^–1. The protocol:
(§1) Peptide substrates were synthesized to >95% purity (GenScript) with N-terminal acetylation and C-terminal amidation. For endpoint experiments, 100 μM peptide substrates were reacted with 50–200 nM KDAC at 25 °C at pH 7.6 for 15–60 min. Deacetylation was measured using a fluorescamine-based assay that was previously described in detail.[18] Reported raw activity for each enzyme–substrate pair is the average and standard deviation for n ≥ 4 unless otherwise noted. Normalized activity was calculated by defining the activity of each KDAC with the FRK^acWR peptide equal to 1. Statistical significance was determined by calculating p values using two-tailed t-tests, assuming similar variance. The significance threshold was set at p ≤ 0.01 with the Bonferroni correction for multiple testing. Kinetic parameters were determined for a subset of enzyme–substrate pairs. In these experiments, 50–200 nM KDAC was reacted with ≥5 substrate concentrations from 10 to 2500 nM and ≥3 timepoints at intervals of 3–20 min were collected for each substrate concentration. Deacetylation was measured using the same method as the endpoint experiments, and KM and kcat were calculated from the observed activity of each reaction as previously described.[18] Activity assays with peptides for verification of substrate preferences were performed as for endpoint experiments, except in a buffer also containing 100 mM KCl. Statistical analysis of the correlation of the presence of particular substrate residues with activity was performed using Fisher’s exact test with a significance threshold of p ≤ 0.05.
In contrast with the peptides tested thus far, which were all derivatives of a single substrate, these panels consisted of peptides derived from human proteins in which the lysine residue is known to be acetylated in cells.[3],[5],[42],[50]−[72] For each enzyme, peptides were included either because they contained an acetyllysine that has been identified as a putative substrate of the KDAC from published cellular studies and/or because the peptide contained a residue that appeared to drive KDAC activity in our analysis. For KDAC6, we observed that of the set of peptides that were tested, six contained tryptophan or tyrosine directly after the acetyllysine. Remarkably, all of these peptides appeared in the top seven most reactive substrates tested (Table 2). Assuming that phenylalanine would behave similarly to tryptophan and tyrosine, we determined that there was a statistically significant correlation between whether or not a peptide was deacetylated by KDAC6 and the presence of tyrosine, tryptophan, or phenylalanine in the +1 position (p = 0.011). […] Thus, our conclusion that the presence of these aromatic residues in the +1 position relative to the acetyllysine is a major factor promoting KDAC6 activity has predictive utility and provides some understanding of the underlying mechanistic basis.

In test [2] the target is T2, Full-length human KDAC8 (Homo sapiens, UniProt Q9BY41).
T2 construct: Full-length human KDAC8 (UniProtKB Q9BY41) was recombinantly expressed fused to a C-terminal His6 tag; TEV protease cleavage site (C); His6 (C); made in house; host or cells: Escherichia coli
T2 sequence (Q9BY41 1-377): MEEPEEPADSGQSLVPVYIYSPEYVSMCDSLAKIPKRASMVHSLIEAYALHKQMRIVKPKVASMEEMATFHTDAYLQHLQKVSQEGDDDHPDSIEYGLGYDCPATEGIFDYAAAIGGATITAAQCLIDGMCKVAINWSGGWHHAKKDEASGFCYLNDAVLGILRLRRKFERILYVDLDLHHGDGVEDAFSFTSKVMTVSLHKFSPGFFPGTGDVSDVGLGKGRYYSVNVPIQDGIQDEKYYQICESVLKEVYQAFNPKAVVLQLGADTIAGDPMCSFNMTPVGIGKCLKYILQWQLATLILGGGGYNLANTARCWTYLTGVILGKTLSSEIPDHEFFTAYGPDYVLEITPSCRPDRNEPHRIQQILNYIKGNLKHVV
The test can be described thus: Activity of KDAC8 with putative substrate peptides (verification of substrate preferences). In kind it is biochemical. Conditions: endpoint, 100 μM peptide, buffer also containing 100 mM KCl; for specific activity, KDAC8 with putative substrates: 50–200 nM KDAC, 25 °C, pH 7.6, 15–60 min, average ± SD, SD; for specific activity, KDAC8 with putative substrates (no activity above limit): limit of reliable detection 0.0004 s^–1. The method, then: as §1
We performed a similar experiment for KDAC8, this time using substrates that have been described as potential KDAC8 substrates from cell-based studies or which contained residues in the +1 and/or +2 positions that were identified to enhance activity of KDAC8. […] In addition, we also considered phenylalanine, as we did for KDAC6. Here, we looked at the correlation between peptides having any of these features and activity. While the result was less striking than for KDAC6, there was still a positive correlation between the presence of the identified residues and activity (Table 3; p = 0.048). Although we have identified only a portion of the interactions that likely contribute to substrate selectivity for these enzymes, these interactions correlate with a statistically significant increase in activity with peptides from potential biological substrates in an unbiased background of residues in other positions.

As for “LSGK^acGNP [acetyllysine peptide from catenin β-1 (P35222)]”, the “specific activity, KDAC6 with putative substrates” value in test [1] stood at 0.042 ± 0.009 s^–1. The same measure, in the same setting: the result for “LDHK^acFDL [acetyllysine peptide from tubulin α-1A chain (P68369)]” reads 0.009 ± 0.007 s^–1. “VLEK^acLGE [acetyllysine peptide from serine/threonine-protein kinase 4 (Q13043)]”: the “specific activity, KDAC6 with putative substrates (no activity above limit)” value in test [1] is on record as “– (– indicates no activity above the limit of reliable detection (0.0013 s^–1))”. Same read-out and setting: the result for “LISK^acIRE [acetyllysine peptide from tubulin β (Q13509)]” reads “– (– indicates no activity above the limit of reliable detection (0.0013 s^–1))”; that for “PSPK^acVSD [acetyllysine peptide from tubulin β-3 chain (Q13509)]”, “– (– indicates no activity above the limit of reliable detection (0.0013 s^–1))”.

Regarding “LGGK^acQRA [acetyllysine peptide from retinoic acid-induced protein 1 (Q7Z5J4)]”, in test [2], the “specific activity, KDAC8 with putative substrates” value was determined as 0.0006 ± 0.0004 s^–1. For “PDRK^acPFP [acetyllysine peptide from E3 SUMO-protein ligase EGR2 (P11161)]”, the “specific activity, KDAC6 with putative substrates (no activity above limit)” value in test [1] is given as “– (– indicates no activity above the limit of reliable detection (0.0013 s^–1))”. “QATK^acDAG [acetyllysine peptide from heat shock 70 kDa protein 1A/1B (P0DMV8/P0DMV9)]”: in test [1], the “specific activity, KDAC6 with putative substrates” value stood at 0.022 ± 0.006 s^–1.

Consider “RIPK^acEQW [acetyllysine peptide from ATP-dependent 6-phosphofructokinase, platelet type (Q01813)]”, for which, in test [2], the “specific activity, KDAC8 with putative substrates” value came to 0.0031 ± 0.0015 s^–1. For the substance “TLSK^acLHE [acetyllysine peptide from protein diaphanous homologue 3 (Q9NSV4)]”, the “specific activity, KDAC6 with putative substrates (no activity above limit)” value in test [1] is “– (– indicates no activity above the limit of reliable detection (0.0013 s^–1))”. The same measure, in the same setting: the result for “FFHK^acVNE [acetyllysine peptide from Mitofusin-1 (Q8IWA4)]” reads “– (– indicates no activity above the limit of reliable detection (0.0013 s^–1))”.

In the case of “VGGK^acDFE [acetyllysine peptide from PDZ and LIM domain protein 1 (O00151)]”, in test [2], the “specific activity, KDAC8 with putative substrates (no activity above limit)” value is given as “– (– indicates no activity above the limit of reliable detection (0.0004 s^–1))”. Same read-out and setting: under “EVGK^acLLN [acetyllysine peptide from centromere protein F (P49454)]” stands “– (– indicates no activity above the limit of reliable detection (0.0004 s^–1))”.

Consider EIGK^acTLA, for which the “specific activity, KDAC8 with putative substrates (no activity above limit)” value in test [2] is recorded as “– (– indicates no activity above the limit of reliable detection (0.0004 s^–1))”. For SVRK^acGIM, in test [1], the “specific activity, KDAC6 with putative substrates (no activity above limit)” value was “– (– indicates no activity above the limit of reliable detection (0.0013 s^–1))”. On the same count and under the same terms, the result for “PEAK^acSLL [acetyllysine peptide from RAC-α serine/threonine-protein kinase (P31749)]” reads “– (– indicates no activity above the limit of reliable detection (0.0013 s^–1))”; that for “DLAK^acVQR [acetyllysine peptide from tubulin α-1A chain (P68369)]”, “– (– indicates no activity above the limit of reliable detection (0.0013 s^–1))”. Turning to “PLWK^acGIG [acetyllysine peptide from regulator of nonsense transcripts 1 (Q92900)]”, in test [2], the “specific activity, KDAC8 with putative substrates” value turned out to be 0.0035 ± 0.0021 s^–1.

Consider “TDGK^acVFQ [acetyllysine peptide from 60S ribosomal protein L24 (P83731)]”, for which, in test [1], the “specific activity, KDAC6 with putative substrates” value is 0.026 ± 0.024 s^–1. For “RFTK^acCLR [acetyllysine peptide from steroid hormone receptor ERR1 (P11474)]”, the “specific activity, KDAC8 with putative substrates” value in test [2] worked out at 0.0030 ± 0.0016 s^–1.

For “GAGK^acHVP [acetyllysine peptide from tubulin α-1A chain (P68369)]”, in test [1], the “specific activity, KDAC6 with putative substrates” value is recorded as 0.06 ± 0.03 s^–1. Same read-out and setting: under “YFSK^acHN [acetyllysine peptide from peroxiredoxin-2 (P32119), C-terminus, not amidated]” stands 0.010 ± 0.006 s^–1. “RMFK^acQFN [acetyllysine peptide from transcription intermediary factor 1-β (Q13263)]”: the “specific activity, KDAC8 with putative substrates” value in test [2] came to 0.015 ± 0.014 s^–1. As for “IIDK^acSQL [acetyllysine peptide from serine/threonine-protein kinase SIK2 (Q9H0K1)]”, the “specific activity, KDAC6 with putative substrates” value in test [1] is 0.011 ± 0.009 s^–1.
